The structures appear in SMILES notation.

The results in this text go back to patent US8106055B2, “Substituted amide compounds” (Gruenenthal GmbH, priority 2007, dated 2012).

The target in one assay is T1, human μ opiate receptor (Homo sapiens, UniProt P35372).
T1 construct: purchased PerkinElmer Life Sciences, Zaventem, Belgium RB-HOM; host or cells: CHO-K1 cells (membrane preparation)
Kind of assay: Affinity for the human μ opiate receptor ([3H]-naloxone displacement, CHO-K1 receptor membrane preparation, SPA). The format is binding. As to conditions: test concentration of 1 μM. In short, it runs like this: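 CHO-K1 membranes expressing human μ receptor incubated 90 min at room temperature with 1 nmol/l [3H]-naloxone and WGA-SPA beads in 50 mmol/l Tris-HCl, 0.06% BSA; 100 μmol/l naloxone defines non-specific binding. Values are % inhibition of specific binding at 1 μM; IC50 converted to Ki by Cheng-Prusoff.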

The target of assay [1] is T2, serotonin (5-HT) reuptake (Rattus norvegicus, UniProt P31652).
T2 construct: synaptosomes are freshly isolated from areas of the rat brain; from tissue; host or cells: rat brain synaptosomes (P2 fraction)
Kind of assay: Inhibition of serotonin (5HT) reuptake in synaptosomes from rat brain. The format is biochemical. The conditions noted are these: test concentration of 10 μM. In short, it runs like this:
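Freshly isolated rat brain synaptosomes (P2 fraction) used for 5-HT reuptake. Test compound at 10 μM, activity given as % inhibition.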

T2 sequence (P31652 whole entry): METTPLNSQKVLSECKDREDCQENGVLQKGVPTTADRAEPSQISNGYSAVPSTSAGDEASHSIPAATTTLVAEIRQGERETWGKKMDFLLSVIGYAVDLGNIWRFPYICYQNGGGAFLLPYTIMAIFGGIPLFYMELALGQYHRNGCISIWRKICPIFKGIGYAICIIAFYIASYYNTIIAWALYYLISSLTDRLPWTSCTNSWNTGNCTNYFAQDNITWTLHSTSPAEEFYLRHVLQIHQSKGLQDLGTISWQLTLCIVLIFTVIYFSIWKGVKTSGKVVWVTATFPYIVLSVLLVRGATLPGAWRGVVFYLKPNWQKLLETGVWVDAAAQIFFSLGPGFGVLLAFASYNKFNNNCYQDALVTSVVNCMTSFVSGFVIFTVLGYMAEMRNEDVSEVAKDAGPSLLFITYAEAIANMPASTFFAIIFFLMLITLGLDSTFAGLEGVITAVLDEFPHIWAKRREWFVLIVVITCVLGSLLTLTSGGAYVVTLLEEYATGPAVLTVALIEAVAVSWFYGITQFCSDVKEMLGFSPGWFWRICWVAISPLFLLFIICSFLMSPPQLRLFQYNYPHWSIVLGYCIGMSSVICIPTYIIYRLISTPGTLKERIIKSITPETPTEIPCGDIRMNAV
T1 sequence (P35372 whole entry): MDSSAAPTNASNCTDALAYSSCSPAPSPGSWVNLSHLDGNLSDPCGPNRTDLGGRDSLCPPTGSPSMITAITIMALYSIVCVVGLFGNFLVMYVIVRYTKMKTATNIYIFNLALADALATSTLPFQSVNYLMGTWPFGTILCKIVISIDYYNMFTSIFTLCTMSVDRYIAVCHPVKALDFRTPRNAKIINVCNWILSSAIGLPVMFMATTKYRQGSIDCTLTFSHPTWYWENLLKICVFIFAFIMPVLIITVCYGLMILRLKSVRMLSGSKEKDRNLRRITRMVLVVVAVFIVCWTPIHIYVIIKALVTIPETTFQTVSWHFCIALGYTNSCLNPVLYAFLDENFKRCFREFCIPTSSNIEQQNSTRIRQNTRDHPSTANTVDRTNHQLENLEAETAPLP

As for `CN(C)C(c1ccccc1)C1CCC(CNC(=O)COCC2CCCN(S(=O)(=O)c3ccccc3)C2)CC1` (stereo not shown) [Example 129, N((4((dimethylamino)(phenyl)methyl)cyclohexyl)methyl)-2-((1-(phenylsulfonyl)piperidin-3-yl)methoxy)acetamide], on human μ opiate receptor, the “μ (binding on the μ opioid receptor, % inhibition)” value is recorded as 89%. Further, the “5-HT (inhibition of reuptake of serotonin, % inhibition)” value in assay [1] turned out to be 95%.
Take `Cc1ccc(S(=O)(=O)N(C)CCOCC(=O)NC2CCC(C(c3cccs3)N(C)C)CC2)cc1` (stereo not shown) [Example 168, N-(4-((dimethylamino) (thiophen-2-yl)methyl)cyclohexyl)-2-(2-(N,4-dimethylphenylsulfamido)ethoxy)acetamide]: the “μ (binding on the μ opioid receptor, % inhibition)” value at human μ opiate receptor worked out at 83%. Moreover, the “5-HT (inhibition of reuptake of serotonin, % inhibition)” value in assay [1] is given as 85%.
Taken in the same sequence, the figures for `COc1cc(C)c(S(=O)(=O)N(CCOCC(=O)NCC2CCC(C(c3ccccc3)N(C)C)CC2)Cc2ccccc2)c(C)c1C` (stereo not shown) [Example 201] were 88% and 89%.
On the same counts, the results for `CN(C)C(c1cccc(F)c1)C1CCC(CCNC(=O)COCC2CCCN2S(=O)(=O)c2ccc(Cl)c(Cl)c2)CC1` (stereo not shown) [Example 202] are 85% and 98%.
On the same counts, the results for `COc1ccc(S(=O)(=O)N2CCCCC2CCOCC(=O)NCC2CCC(C(c3cccc(F)c3)N(C)C)CC2)cc1` (stereo not shown) [Example 203] are 83% and 93%.
For `CN(C)C(c1cccc(F)c1)C1CCC(NC(=O)COC2CCN(S(=O)(=O)c3ccc(Cl)cc3)C2)CC1` (stereo not shown) [Example 204], at human μ opiate receptor, the “μ (binding on the μ opioid receptor, % inhibition)” value stood at 81%. For the same compound, in assay [1], the “5-HT (inhibition of reuptake of serotonin, % inhibition)” value was found to be 86%.
Take `CN(C)C(c1cccc(F)c1)C1CCC(NC(=O)COCCN(C)S(=O)(=O)c2ccc(F)cc2)CC1` (stereo not shown) [Example 205]: on human μ opiate receptor, the “μ (binding on the μ opioid receptor, % inhibition)” value came out at 76%. Further, the “5-HT (inhibition of reuptake of serotonin, % inhibition)” value in assay [1] is on record as 84%.
On the same counts, the results for `COc1ccc(S(=O)(=O)N(C)CCOCC(=O)NC2CCC(C(c3cccs3)N(C)C)CC2)cc1OC` (stereo not shown) [Example 206] are 78% and 84%.
As to `CN(C)C(c1ccc(Cl)cc1)C1CCC(CNC(=O)COCCN(C)S(=O)(=O)c2c(Cl)cccc2Cl)CC1` (stereo not shown) [Example 207], the “μ (binding on the μ opioid receptor, % inhibition)” value at human μ opiate receptor is given as 77%. For the same compound, in assay [1], the “5-HT (inhibition of reuptake of serotonin, % inhibition)” value came to 72%.
Consider `CN(C)C(c1cccc(F)c1)C1CCC(NC(=O)COCCN(C)S(=O)(=O)c2c(Cl)cc(Cl)cc2Cl)CC1` (stereo not shown) [Example 208], for which, at human μ opiate receptor, the “μ (binding on the μ opioid receptor, % inhibition)” value was found to be 79%. The “5-HT (inhibition of reuptake of serotonin, % inhibition)” value in assay [1] was 93%.
Take `CCN(CCOCC(=O)NCCC1CCC(C(c2cccc(F)c2)N(C)C)CC1)S(=O)(=O)c1c(C)cc(OC)c(C)c1C` (stereo not shown) [Example 209]: the “μ (binding on the μ opioid receptor, % inhibition)” value at human μ opiate receptor came to 85%. Also, in assay [1], the “5-HT (inhibition of reuptake of serotonin, % inhibition)” value was 94%.
As to `CN(C)C(c1cccc(F)c1)C1CCC(NC(=O)COCC2CCCN2S(=O)(=O)c2ccc(Cl)c(Cl)c2)CC1` (stereo not shown) [Example 211], the “μ (binding on the μ opioid receptor, % inhibition)” value at human μ opiate receptor worked out at 83%. Further, in assay [1], the “5-HT (inhibition of reuptake of serotonin, % inhibition)” value is listed as 90%.
In the case of `COc1ccc(S(=O)(=O)N2CCCCC2CCOCC(=O)NC2CCC(C(c3ccc(F)cc3)N(C)C)CC2)cc1` (stereo not shown) [Example 212], the “μ (binding on the μ opioid receptor, % inhibition)” value on human μ opiate receptor is on record as 80%. Moreover, the “5-HT (inhibition of reuptake of serotonin, % inhibition)” value in assay [1] turned out to be 92%.
For `COc1ccc(S(=O)(=O)N2CCCCC2CCOCC(=O)NCCC2CCC(C(c3cccc(F)c3)N(C)C)CC2)cc1` (stereo not shown) [Example 213], the “μ (binding on the μ opioid receptor, % inhibition)” value on human μ opiate receptor is 87%. In addition, the “5-HT (inhibition of reuptake of serotonin, % inhibition)” value in assay [1] worked out at 98%.
Taken in the same sequence, the figures for `CN(C)C(c1cccs1)C1CCC(CCNC(=O)COC2CCCCC2N(C)S(=O)(=O)c2ccc(Cl)c(Cl)c2)CC1` (stereo not shown) [Example 214] were 85% and 83%.
For the compound `CN(C)C(c1cccc(F)c1)C1CCC(CCNC(=O)COCCN(C)S(=O)(=O)c2ccc(OC(F)(F)F)cc2)CC1` (stereo not shown) [Example 215], at human μ opiate receptor, the “μ (binding on the μ opioid receptor, % inhibition)” value was 85%. Besides, the “5-HT (inhibition of reuptake of serotonin, % inhibition)” value in assay [1] is listed as 90%.
Regarding `Cc1ccc(S(=O)(=O)N2CCC(OCC(=O)NCCC3CCC(C(c4cccc(F)c4)N(C)C)CC3)C2)cc1` (stereo not shown) [Example 216], the “μ (binding on the μ opioid receptor, % inhibition)” value at human μ opiate receptor is reported as 72%. Moreover, the “5-HT (inhibition of reuptake of serotonin, % inhibition)” value in assay [1] is on record as 87%.
On the same counts, the results for `CN(C)C(c1cccc(F)c1)C1CCC(NC(=O)COCCN(C)S(=O)(=O)c2ccc(Cl)cc2Cl)CC1` (stereo not shown) [Example 217] are 89% and 85%.
Turning to `CN(C)C(c1cccc(F)c1)C1CCC(CCNC(=O)COCCN(C)S(=O)(=O)c2ccc(F)cc2)CC1` (stereo not shown) [Example 218], at human μ opiate receptor, the “μ (binding on the μ opioid receptor, % inhibition)” value turned out to be 82%. Besides, the “5-HT (inhibition of reuptake of serotonin, % inhibition)” value in assay [1] worked out at 101%.
On the same counts, the results for `CN(C)C(c1ccccc1)C1CCC(CNC(=O)COC2CCN(S(=O)(=O)c3ccc(F)cc3)C2)CC1` (stereo not shown) [Example 219] are 82% and 96%.
In the case of `CN(C)C(c1cccc(F)c1)C1CCC(CNC(=O)COCC2CCCN(S(=O)(=O)c3ccccc3)C2)CC1` (stereo not shown) [Example 220], the “μ (binding on the μ opioid receptor, % inhibition)” value at human μ opiate receptor is listed as 73%. Further, the “5-HT (inhibition of reuptake of serotonin, % inhibition)” value in assay [1] was found to be 95%.
Taken in the same sequence, the figures for `COc1cc(C)c(S(=O)(=O)N2CCCC(OCC(=O)NCCC3CCC(C(c4cccc(F)c4)N(C)C)CC3)C2)c(C)c1C` (stereo not shown) [Example 221] were 82% and 95%.
In the case of `COc1cc(C)c(S(=O)(=O)N2CCN(CCOCC(=O)NC3CCC(C(c4ccc(F)cc4)N(C)C)CC3)CC2)c(C)c1C` (stereo not shown) [Example 222], the “μ (binding on the μ opioid receptor, % inhibition)” value on human μ opiate receptor came out at 77%. The “5-HT (inhibition of reuptake of serotonin, % inhibition)” value in assay [1] was 92%.
Consider `COc1cc(C)c(S(=O)(=O)N2CCN(CCOCC(=O)NCC3CCC(C(c4cccc(F)c4)N(C)C)CC3)CC2)c(C)c1C` (stereo not shown) [Example 223], for which, at human μ opiate receptor, the “μ (binding on the μ opioid receptor, % inhibition)” value is listed as 77%. For the same compound, in assay [1], the “5-HT (inhibition of reuptake of serotonin, % inhibition)” value amounted to 96%.
Taken in the same sequence, the figures for `COc1ccc(S(=O)(=O)N2CCCC2COCC(=O)NCCC2CCC(C(c3cccc(F)c3)N(C)C)CC2)cc1` (stereo not shown) [Example 224] were 85% and 97%.
Taken in the same sequence, the figures for `CN(C)C(c1cccc(F)c1)C1CCC(CNC(=O)COC2CCN(S(=O)(=O)c3ccc(Cl)cc3Cl)C2)CC1` (stereo not shown) [Example 225] were 83% and 85%.
As to `Cc1ccc(S(=O)(=O)N(C)CCOCC(=O)NC2CCC(C(c3cccc(F)c3)N(C)C)CC2)cc1` (stereo not shown) [Example 226], the “μ (binding on the μ opioid receptor, % inhibition)” value on human μ opiate receptor amounted to 74%. Moreover, the “5-HT (inhibition of reuptake of serotonin, % inhibition)” value in assay [1] was determined as 91%.
For `Cc1ccc(S(=O)(=O)N(C)CCOCC(=O)NCC2CCC(C(c3cccc(F)c3)N(C)C)CC2)cc1` (stereo not shown) [Example 227], the “μ (binding on the μ opioid receptor, % inhibition)” value on human μ opiate receptor was 77%. Also, in assay [1], the “5-HT (inhibition of reuptake of serotonin, % inhibition)” value was 86%.
Take `COc1cc(C)c(S(=O)(=O)N(C)CCOCC(=O)NC2CCC(C(c3cccc(F)c3)N(C)C)CC2)c(C)c1` (stereo not shown) [Example 228]: the “μ (binding on the μ opioid receptor, % inhibition)” value on human μ opiate receptor is 76%. In addition, in assay [1], the “5-HT (inhibition of reuptake of serotonin, % inhibition)” value is reported as 85%.
On the same counts, the results for `CN(C)C(c1cccc(F)c1)C1CCC(CNC(=O)COCCN(C)S(=O)(=O)c2ccc(F)cc2)CC1` (stereo not shown) [Example 229] are 79% and 89%.
On the same counts, the results for `CN(C)C(c1cccs1)C1CCC(CCNC(=O)COC2CCN(S(=O)(=O)c3ccccc3)CC2)CC1` (stereo not shown) [Example 230] are 82% and 94%.
As to `CCN(CCOCC(=O)NCC1CCC(C(c2ccccc2)N(C)C)CC1)S(=O)(=O)c1c(C)cc(OC)c(C)c1C` (stereo not shown) [Example 231], at human μ opiate receptor, the “μ (binding on the μ opioid receptor, % inhibition)” value is 82%. Also, the “5-HT (inhibition of reuptake of serotonin, % inhibition)” value in assay [1] was 83%.
Taken in the same sequence, the figures for `COc1cc(C)c(S(=O)(=O)N2CCC(OCC(=O)NCCC3CCC(C(c4cccc(F)c4)N(C)C)CC3)CC2)c(C)c1C` (stereo not shown) [Example 232] were 78% and 98%.
Taken in the same sequence, the figures for `COc1ccc(S(=O)(=O)N2Cc3ccccc3CC2COCC(=O)NC2CCC(C(c3ccc(F)cc3)N(C)C)CC2)cc1` (stereo not shown) [Example 234] were 76% and 95%.
On to `Cc1cc(C)c(S(=O)(=O)N(C)CCOCC(=O)NC2CCC(C(c3cccs3)N(C)C)CC2)c(C)c1` (stereo not shown) [Example 235], for which the “μ (binding on the μ opioid receptor, % inhibition)” value at human μ opiate receptor came to 76%. Further, the “5-HT (inhibition of reuptake of serotonin, % inhibition)” value in assay [1] was found to be 86%.
On the same counts, the results for `COc1cc(C)c(S(=O)(=O)N(C)CCOCC(=O)NC2CCC(C(c3ccccc3)N(C)C)CC2)c(C)c1` (stereo not shown) [Example 239] are 38% and 78%.
Taken in the same sequence, the figures for `Cc1ccc(S(=O)(=O)N(C)CCOCC(=O)NCCC2CCC(C(c3cccc(F)c3)N(C)C)CC2)cc1` (stereo not shown) [Example 240] were 74% and 87%.
On the same counts, the results for `CN(C)C(c1ccc(Cl)cc1)C1CCC(CCNC(=O)COCCN(C)S(=O)(=O)c2ccc(F)cc2)CC1` (stereo not shown) [Example 241] are 67% and 102%.
